Among the data in US20250270201A1, “SUBSTITUTED PYRIMIDINYL HYDRAZIDE COMPOUND AND PREPARATION METHOD AND USE THEREOF” (ARIGENX THERAPEUTICS CO., LTD., priority 2022, published 2025) are IC50 values, retold here.

The target of this assay is T1, AHR (Homo sapiens, UniProt P35869).
T1 construct: A human liver cancer cell line HepG2 endogenously expressing an AHR protein; host or cells: HepG2 stably transfected with a CYP1A1-promoter firefly luciferase reporter
T1 sequence (P35869 11-848): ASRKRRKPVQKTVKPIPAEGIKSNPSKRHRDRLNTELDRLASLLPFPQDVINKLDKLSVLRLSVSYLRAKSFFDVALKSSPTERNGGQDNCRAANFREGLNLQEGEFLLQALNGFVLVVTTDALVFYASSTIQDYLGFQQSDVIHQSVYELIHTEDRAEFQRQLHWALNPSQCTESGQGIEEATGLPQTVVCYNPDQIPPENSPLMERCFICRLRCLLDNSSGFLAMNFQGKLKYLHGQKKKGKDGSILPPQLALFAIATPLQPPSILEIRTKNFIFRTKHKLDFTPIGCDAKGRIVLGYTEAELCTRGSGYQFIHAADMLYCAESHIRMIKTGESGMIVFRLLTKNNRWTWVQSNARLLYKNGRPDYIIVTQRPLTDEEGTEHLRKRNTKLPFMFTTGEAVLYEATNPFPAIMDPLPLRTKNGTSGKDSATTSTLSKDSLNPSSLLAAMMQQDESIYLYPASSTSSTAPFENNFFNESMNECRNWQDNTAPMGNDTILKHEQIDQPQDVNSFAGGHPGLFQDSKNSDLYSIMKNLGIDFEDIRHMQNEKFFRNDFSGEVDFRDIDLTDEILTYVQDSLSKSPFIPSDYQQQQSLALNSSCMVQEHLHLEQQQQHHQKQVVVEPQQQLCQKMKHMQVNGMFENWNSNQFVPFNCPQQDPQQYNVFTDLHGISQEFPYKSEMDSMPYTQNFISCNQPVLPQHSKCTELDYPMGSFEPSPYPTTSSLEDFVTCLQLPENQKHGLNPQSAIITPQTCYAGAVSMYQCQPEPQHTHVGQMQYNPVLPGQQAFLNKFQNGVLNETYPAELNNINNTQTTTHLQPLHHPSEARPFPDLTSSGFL
The experiment in a line: Antagonistic effect for AHR in HepG2 cells stably transfected with CYP1A1-promoter firefly luciferase reporter. In kind it is cell-based. The following applies: AHR agonist-stimulated, 24 h compound treatment, average of two replicates. An excerpt: A human liver cancer cell line HepG2 endogenously expressing an AHR protein (provided by the Stem Cell Bank of the Chinese Academy of Sciences) was adopted for testing. The expression of a CYP1A1 gene is regulated by an activity of AHR. After being activated, AHR can bind to a sequence called XRE on a CYP1A1 enhancer and initiate the expression of the CYP1A1 gene. To quantitatively determine an impact of a compound on the activity of AHR, a 1,200 bp (−1,143 to +57) regulatory sequence upstream of a promoter of the CYP1A1 gene was synthesized through gene synthesis and then inserted into a plasmid vector carrying firefly luciferase. The plasmid was then linearized through single enzyme cleavage and then transfected into HepG2 cells through lipofectin transfection (Lipofectamine 3000), and transfected HepG2 cells were screened by puromycin to obtain a stably-expressed cell line. When an antagonistic effect of a compound for AHR was tested, the expression of firefly luciferase was initiated by an AHR agonist (such as L-kynurenine, kynurenic acid, indirubin, TCDD, and 2-(1H-indol-3-ylcarbonyl)-4-thiazolecarboxylic acid methyl ester (ITE)), and cells were treated with the compound at different concentrations. Then, the inhibition on the expression of luciferase by the compound was measured.
Stably-transfected HepG2 cells were sub-cultivated in Minimum Eagle's medium (MEM) at 37° C. and 5% carbon dioxide. In the MEM, 1 mM sodium pyruvate, 2 mM GlutaMax, 1×non- essential amino acids, 10% Australian fetal bovine serum, 100 U/mL penicillin-streptomycin, and 5 μg/mL puromycin were supplemented. Before testing, HepG2 cells were inoculated into a 96-well plate at a density of 5-8×10^4 cells/well and cultivated for 24 h to 48 h to allow a cell confluency of about 90% before a drug treatment (puromycin was not added in a medium). Before the drug treatment, AHR agonist-containing 2×compound solutions at different concentrations were prepared with a same medium, and then a half of a cell culture medium in the 96-well plate was replaced with a 2×compound solution. An AHR agonist solution including only DMSO at a corresponding concentration was set as a negative control group, and CH223191 at a corresponding concentration (commercially available) was set as a positive control group. 2 separate replicate tests were set for each compound (including a positive control and a negative control). 24 h after the compound treatment, HepG2 cells were lysed by a Steady-Glo luciferase detection system of Promega, and a luciferase signal was measured by an InfiniteM1000 Pro microplate reader of Tecan.
In terms of data processing, for each replicate test of each compound, inhibition percentages of a compound at different concentrations on an activity of AHR were calculated sequentially with a signal of a well at a compound concentration of 0 as 100% and a cell signal of an untreated agonist as 0. Corresponding IC50 of a compound was calculated with an average value of data of two replicates according to the formula
tirougn non-nnear ning, where y represents an inhibition percentage and x represents a concentration of a corresponding compound.
IC50 for each compound was shown in Table 2, where A indicates IC50≤500 nM, B indicates 500 nM<IC50≤1.0 μM, C indicates 1 μM<IC50≤5.0 μM, and D indicates IC50>5.0 μM.

Broadly, the IC50 is the concentration at which inhibition is half-maximal. A higher IC50 goes with lower potency.

Molecules are shown by their SMILES.

Take `CC(C)N(NC(=O)c1cc(-c2ccc(C(F)(F)F)nc2)nc(-c2cccc(F)c2)n1)C(C)CO` (stereo not shown) [Compound 65]: the IC50 fell in the range of 500 to 1000 nM. The compound `C[C@H]1COCCN1NC(=O)c1cc(-c2ccc(C(F)(F)F)cc2)nc(-c2cccnc2)n1` [Compound 4] gave an IC50 of at most 500 nM. Turning to `C[C@@H]1COCCN1NC(=O)c1cc(-c2ccc(Cl)cc2)nc(-c2cccnc2)n1` [Compound 9], the 50% inhibitory concentration (IC50) was at most 500 nM.

Regarding `CC(=O)N(NC(=O)c1cc(-c2ccc(C(F)(F)F)cc2)nc(-c2cnn(C)c2)n1)c1cnccn1` [Compound 34], the IC50 was at most 500 nM. `CC(=O)N(NC(=O)c1cc(-c2ccc(C(F)(F)F)cc2)nc(-c2cccnc2)n1)c1cnccn1` [Compound 33]: the 50% inhibitory concentration (IC50) was at most 500 nM. Then `CC1(C)CN(NC(=O)c2cc(-c3ccc(C(F)(F)F)cc3)nc(-c3cccnc3)n2)CCO1` [Compound 31], with 500 to 1000 nM. The compound `CCN(NC(=O)c1cc(-c2ccc(C(F)(F)F)cc2)nc(-c2cccs2)n1)C(C)CO` (stereo not shown) [Compound 56] had an IC50 of at most 500 nM. The result for `CC(O)CN(NC(=O)c1cc(-c2ccc(Cl)cc2)nc(-c2cccnc2)n1)C(C)C` (stereo not shown) [Compound 32] reads at most 500 nM; that for `C[C@@H]1COCCN1NC(=O)c1cc(-c2ccc(OC(F)(F)F)cc2)nc(-c2cnn(C)c2)n1` [Compound 16], at most 500 nM; that for `CC(C)N(NC(=O)c1cc(-c2ccc(C(F)(F)F)cc2)nc(-c2cccnc2)n1)S(C)(=O)=O` [Compound 67], at most 500 nM. The result for `CC1COCC(CO)N1NC(=O)c1cc(-c2ccc(C(F)(F)F)cc2)nc(-c2cccnc2)n1` (stereo not shown) [Compound 12] reads at most 500 nM; that for `C[C@@H]1COCCN1NC(=O)c1cc(-c2ccc(OC(F)(F)F)cc2)nc(-c2cccnc2)n1` [Compound 7], at most 500 nM; that for `CC(C)N(NC(=O)c1cc(-c2ccc(C(F)(F)F)cc2)nc(-c2cccnc2)n1)C(=O)c1cccnc1` [Compound 68], at most 500 nM. Turning to `O=C(NN1CCOCC1CO)c1cc(-c2ccc(C(F)(F)F)cc2)nc(-c2cccnc2)n1` (stereo not shown) [Compound 23], the 50% inhibitory concentration (IC50) was at most 500 nM. Compound `O=C(NN1CCS(=O)(=O)CC1)c1cc(-c2ccc(C(F)(F)F)cc2)nc(-c2cccnc2)n1` [Compound 25] showed an IC50 of 500 to 1000 nM. As for `O=C(NN1CCOC[C@@H]1CO)c1cc(-c2ccc(Cl)cc2)nc(-c2cccnc2)n1` [Compound 47], the 50% inhibitory concentration (IC50) is at most 500 nM.

In turn, `CC(CO)NNC(=O)c1cc(-c2ccc(C(F)(F)F)cc2)nc(-c2cccnc2)n1` (stereo not shown) [Compound 13] registered an IC50 of at most 500 nM. The result for `CC1(C)COCCN1NC(=O)c1cc(-c2ccc(Cl)cc2)nc(-c2cccnc2)n1` [Compound 26] reads at most 500 nM. In turn, `CC(C)N(NC(=O)c1cc(-c2ccc(C(F)(F)F)nc2)nc(-c2cccc(F)c2)n1)C(C)CO` (stereo not shown) [Compound 37] yielded an IC50 of at most 500 nM.

Regarding `C[C@@H]1COCCN1NC(=O)c1cc(-c2ccc(Cl)cc2)nc(-c2cnn(C)c2)n1` [Compound 40], the half-maximal inhibitory concentration (IC50) is at most 500 nM. On to `CN(CCO)NC(=O)c1cc(-c2ccc(Cl)cc2)nc(-c2cccnc2)n1` [Compound 17], for which the IC50 is at most 500 nM. `O=C(NN1CCC[C@H]1CO)c1cc(-c2ccc(Cl)cc2)nc(-c2cccnc2)n1` [Compound 22]: the IC50 lay in the range of 500 to 1000 nM.

On to `Cn1cc(-c2nc(C(=O)NN3CCOC[C@@H]3CO)cc(-c3ccc(C(F)(F)F)cc3)n2)cn1` [Compound 44], for which the IC50 is at most 500 nM. With `CCN(NC(=O)c1cc(-c2ccc(Cl)cc2)nc(-c2cccc(F)c2)n1)C(C)CO` (stereo not shown) [Compound 54], the half-inhibitory concentration (IC50) was at most 500 nM. For the compound `C[C@H]1COCCN1NC(=O)c1cc(-c2ccc(Cl)cc2)nc(-c2cnn(C)c2)n1` [Compound 41], the concentration for half-maximal inhibition (IC50) is at most 500 nM.

`C[C@@H]1COCCN1NC(=O)c1cc(-c2ccc(C(F)(F)F)cc2)nc(-c2cccnc2)n1` [Compound 5] gave an IC50 of at most 500 nM.

Take `Cn1cc(-c2nc(C(=O)NN3CCOC[C@H]3CO)cc(-c3ccc(C(F)(F)F)cc3)n2)cn1` [Compound 45]: the half-inhibitory concentration (IC50) was at most 500 nM. Then `CC(C)N(NC(=O)c1cc(-c2ccc(C(F)(F)F)cc2)nc(-c2cccc(F)c2)n1)C(C)CO` (stereo not shown) [Compound 61], with at most 500 nM; and `Cc1ccc(-c2cc(C(=O)NN(C(C)C)C(C)CO)nc(-c3cccnc3)n2)cc1` (stereo not shown) [Compound 49], with at most 500 nM. Regarding `CC(C)N(NC(=O)c1cc(-c2ccc(N)cc2)nc(-c2cccnc2)n1)C(C)CO` (stereo not shown) [Compound 63], the IC50 was in the range of 500 to 1000 nM.

`CC1COCC(=O)N1NC(=O)c1cc(-c2ccc(Cl)cc2)nc(-c2cccnc2)n1` (stereo not shown) [Compound 28] displayed an IC50 of 500 to 1000 nM. `CC(C)N(CCO)NC(=O)c1cc(-c2ccc(C(F)(F)F)cc2)nc(-c2cnn(C)c2)n1` [Compound 20] yielded a half-maximal inhibitory concentration (IC50) of at most 500 nM. Take `C[C@@H]1COCCN1NC(=O)c1cc(-c2ccc(C(F)(F)F)cc2)nc(-c2cnn(C)c2)n1` [Compound 38]: the 50% inhibitory concentration (IC50) fell in the range of 500 to 1000 nM.

Turning to `O=C(NN1C(=O)COCC1CO)c1cc(-c2ccc(Cl)cc2)nc(-c2cccnc2)n1` (stereo not shown) [Compound 29], the IC50 is at most 500 nM. The result for `CC(=O)N(NC(=O)c1cc(-c2ccc(C(F)(F)F)cc2)nc(-c2cccnc2)n1)C(C)C` [Compound 66] reads at most 500 nM; that for `O=C(NN1CCOCC1)c1cc(-c2ccc(C(F)(F)F)cc2)nc(-c2cccnc2)n1` [Compound 24], 500 to 1000 nM; that for `CC(C)N(NC(=O)c1cc(-c2ccc(F)cc2)nc(-c2cccnc2)n1)C(C)CO` (stereo not shown) [Compound 59], 500 to 1000 nM. Compound `CC(C)N(NC(=O)c1cc(-c2ccc(OC(F)(F)F)cc2)nc(-c2cccnc2)n1)C(C)CO` (stereo not shown) [Compound 14] yielded an IC50 of at most 500 nM. Then `O=C(NN1CCOC[C@H]1CO)c1cc(-c2ccc(C(F)(F)F)cc2)nc(-c2cccnc2)n1` [Compound 42], with at most 500 nM; and `C[C@H]1COCCN1NC(=O)c1cc(-c2ccc(Cl)cc2)nc(-c2cccnc2)n1` [Compound 8], with at most 500 nM.
